# Results taken from patent US20250353873A1, “COMPOUNDS AND METHODS FOR MODULATING APOE EXPRESSION” (Ionis Pharmaceuticals, Inc., priority 2024, published 2025).
# Several values for one entry are separate records, joined by “and”; a condition that tells them apart may be missing. Identical values can stand only once. Strand notation (5' to 3'): a small letter for the sugar, then the base; units joined by * are phosphorothioate-linked, units joined directly phosphodiester-linked; [ ] holds rarer units or linkages, { } end groups; capitals alone tell only the bases. [ms] = mesyl phosphoramidate linkage; k = constrained ethyl (cEt); [5mC] = 5-methylcytosine; d = 2'-deoxy (DNA)
# What was measured:
# human APOE RNA [1] = experiment: Duration of action study in APOE C57BL/6NTac-Apoeem7250 knock-in mice (Example 16); type: in vivo; settings: 300 μg ICV
# Procedure, shortened: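 Knock-in mice (2-4 per group) received a single ICV bolus of 300 μg oligonucleotide or PBS. At various timepoints, cortex and spinal cord human APOE RNA was measured by RT-qPCR (RTS3073), normalized to mouse Ppia and expressed as % of PBS control.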
# human APOE RNA [2] = experiment: Activity in APOE C57BL/6NTac-Apoeem7250 knock-in mice, single ICV bolus, 4 weeks (Example 10); type: in vivo; settings: single ICV bolus 300 μg, 4 weeks post treatment, normalized to mouse Ppia
# Procedure, shortened: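 Human APOE RNA, quantified by real-time RT-PCR with RTS3073 and normalized to mouse Ppia, was read in cortical brain and spinal cord 4 weeks post dosing. Dosing was a single ICV bolus of 300 μg per knock-in mouse; values are % of PBS-treated animals.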
# human APOE RNA [3] = experiment: Activity in APOE C57BL/6NTac-Apoeem7250 knock-in mice, single ICV bolus, 8 weeks (Example 11); type: in vivo; settings: single ICV bolus 300 μg, 8 weeks post treatment, normalized to mouse Ppia
# Procedure, shortened: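 Cortical and spinal cord human APOE RNA quantified by RT-qPCR 8 weeks after a single 300 μg ICV dose in knock-in mice, Ppia-normalized. Values are percent of levels in PBS-treated animals.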
# human APOE RNA [4] = experiment: Dose-dependent inhibition of human APOE RNA in HepG2 cells, electroporation, 50,000 cells per well, RT-PCR normalized to GAPDH (Example 4, Tables 8-10); type: cell-based; settings: HepG2, electroporation, 24-hour treatment
# Procedure, shortened: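 Readout is percent APOE RNA versus untreated controls, measured by RT-PCR (primer probe set RTS3073) and normalized to human GAPDH. Modified oligonucleotides were delivered by electroporation at varying doses into HepG2 cells plated at 50,000 per well.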
# human APOE RNA [5] = experiment: Dose-dependent inhibition of human APOE RNA in differentiated SH-SY5Y cells, free uptake, 5 days (Example 5); type: cell-based; settings: 5 days (Table 14)
# Description: Modified oligonucleotides selected from the examples above were tested at various doses in differentiated SH-SY5Y cells. The modified oligonucleotides were tested in a series of experiments that had the same culture conditions.
# Differentiated SH-SY5Y cells plated at a density of 10,000 cells per well were treated by free uptake with various concentrations of modified oligonucleotide as specified in the tables below. […] APOE RNA levels were measured using the human primer probe set RTS3073 (described herein above). APOE RNA levels were normalized to human PPIA. Human PPIA was amplified using human primer probe set mk_cycloA_2nd (described herein above). Results are presented as percent APOE RNA, relative to the amount of APOE RNA in untreated control cells (% UTC). The half maximal inhibitory concentration (IC50) of each modified oligonucleotide was calculated in GraphPad Prism 10 (GraphPad Software, San Diego, CA) and is also presented in the tables below.
Substance,APOE RNA (% control) Cortex (human APOE RNA [1]; 112 days post-dose),APOE RNA (% control) Cortex (human APOE RNA [1]; 140 days post-dose),APOE RNA (% control) Spinal Cord (human APOE RNA [1]; 112 days post-dose),APOE RNA (% control) Spinal Cord (human APOE RNA [1]; 140 days post-dose),APOE RNA (% control) Cortex (human APOE RNA [2]),APOE RNA (% control) Spinal Cord (human APOE RNA [2]),APOE RNA (% control) Cortex (human APOE RNA [3]),APOE RNA (% control) Spinal Cord (human APOE RNA [3]),APOE RNA (% UTC) (human APOE RNA [4]; 5 nM),APOE RNA (% UTC) (human APOE RNA [4]; 13 nM),APOE RNA (% UTC) (human APOE RNA [4]; 82 nM),APOE RNA (% UTC) (human APOE RNA [4]; 205 nM),APOE RNA (% UTC) (human APOE RNA [4]; 512 nM),"APOE RNA (% UTC) (human APOE RNA [4]; 1,280 nM)","APOE RNA (% UTC) (human APOE RNA [4]; 3,200 nM)","APOE RNA (% UTC) (human APOE RNA [4]; 8,000 nM)","APOE RNA (% UTC) (human APOE RNA [4]; 20,000 nM)",IC50 (human APOE RNA [4]),APOE RNA (% UTC) (human APOE RNA [5]; 5 nM),APOE RNA (% UTC) (human APOE RNA [5]; 13 nM),other results
1746784 (k[5mC]*kT*kT*dG[ms]dG[ms]dT[ms]dG[ms]dA[ms]dA[ms]dT*d[5mC]*dT*dT*dT*dA[ms]dT*kT*kA*dA[ms]kA; antisense) [Compound 1746784],38 % control,45 % control,24 % control,56 % control,49 % control and 39 % control,26 % control,38 % control,138 % control,78 % UTC,74 % UTC,80 % UTC,61 % UTC,48 % UTC,29 % UTC,10 % UTC,7 % UTC,7 % UTC,0.31 µM,82 % UTC,118 % UTC,"APOE RNA (% UTC) (human APOE RNA [5]; 33 nM): 83 % UTC; APOE RNA (% UTC) (human APOE RNA [5]; 82 nM): 61 % UTC; APOE RNA (% UTC) (human APOE RNA [5]; 205 nM): 49 % UTC; APOE RNA (% UTC) (human APOE RNA [5]; 512 nM): 62 % UTC; APOE RNA (% UTC) (human APOE RNA [5]; 1,280 nM): 36 % UTC; APOE RNA (% UTC) (human APOE RNA [5]; 3,200 nM): 24 % UTC; APOE RNA (% UTC) (human APOE RNA [5]; 8,000 nM): 13 % UTC; APOE RNA (% UTC) (human APOE RNA [5]; 20,000 nM): 6 % UTC; IC50 (human APOE RNA [5]): 0.44 µM"
1746804 (k[5mC]*kT*kT*dG[ms]dG[ms]dT[ms]dG[ms]dA[ms]dA[ms]dT*d[5mC]*dT*dT*dT*dA[ms]dT*dT[ms]kA*kA*kA; antisense) [Compound 1746804],37 % control,60 % control,205 % control,207 % control,51 % control and 46 % control,52 % control and 40 % control,40 % control,25 % control,89 % UTC,88 % UTC,81 % UTC,66 % UTC,57 % UTC,45 % UTC,40 % UTC,4 % UTC,2 % UTC,0.68 µM,114 % UTC,117 % UTC,"APOE RNA (% UTC) (human APOE RNA [4]; 33 nM): 80 % UTC; APOE RNA (% UTC) (human APOE RNA [5]; 33 nM): 120 % UTC; APOE RNA (% UTC) (human APOE RNA [5]; 82 nM): 97 % UTC; APOE RNA (% UTC) (human APOE RNA [5]; 205 nM): 84 % UTC; APOE RNA (% UTC) (human APOE RNA [5]; 512 nM): 82 % UTC; APOE RNA (% UTC) (human APOE RNA [5]; 1,280 nM): 61 % UTC; APOE RNA (% UTC) (human APOE RNA [5]; 3,200 nM): 48 % UTC; APOE RNA (% UTC) (human APOE RNA [5]; 8,000 nM): 32 % UTC; APOE RNA (% UTC) (human APOE RNA [5]; 20,000 nM): 18 % UTC; IC50 (human APOE RNA [5]): 2.83 µM"
